Reference: US12281149B2, “Modulators of G-protein coupled receptors” (priority 2021, dated 2025)
pEC50: −log10 of the molar value. *1 amine or outer side, *2 acyl side, *3 side chain or, on linkers, in order; H or OH if unused. Where a SMILES comes first, the peptide text is derived from it. Side-chain parts run from the residue outwards. [ ]: non-standard residue; d: D form. The star is where a group is joined. Isobutyryl(2-(3-CN-5-F-Ph)) = CC(C)(C(=O)*)c1cc(F)cc(C#N)c1; C20 diacid = O=C(O)CCCCCCCCCCCCCCCCCCC(=O)*; γGlu = O=C(O)[C@H](CCC(=O)[*:2])N[*:1]; X17 = CC(C)(C(=O)*)c1ccc(F)c(F)c1; X28 = O=C(C1(n2cccn2)CCNCC1)*; X29 = Fc1ccc(N*)c(F)c1; AEEA = NCCOCCOCC(=O)O; Aib = CC(C)(N)C(=O)O; CO = O=C([*:1])[*:2]; GABA = NCCCC(=O)O; βAla = NCCC(=O)O

Experiments:
Type in all cases: cell-based
GLP-1 receptor [1] = target: T1, GLP-1 receptor (Homo sapiens, UniProt P43220); experiment: HitHunter cAMP assay, GLP-1 receptor; settings: for pEC50: CHO cells stably expressing human GLP-1 receptor, cAMP accumulation, 30 min, read-out: EC50 GLP-1R; for Emax: CHO cells, cAMP, normalized to maximum signal from GLP-1 (high) and DMSO (low), read-out: Emax GLP-1R
T1 sequence (P43220 24-463): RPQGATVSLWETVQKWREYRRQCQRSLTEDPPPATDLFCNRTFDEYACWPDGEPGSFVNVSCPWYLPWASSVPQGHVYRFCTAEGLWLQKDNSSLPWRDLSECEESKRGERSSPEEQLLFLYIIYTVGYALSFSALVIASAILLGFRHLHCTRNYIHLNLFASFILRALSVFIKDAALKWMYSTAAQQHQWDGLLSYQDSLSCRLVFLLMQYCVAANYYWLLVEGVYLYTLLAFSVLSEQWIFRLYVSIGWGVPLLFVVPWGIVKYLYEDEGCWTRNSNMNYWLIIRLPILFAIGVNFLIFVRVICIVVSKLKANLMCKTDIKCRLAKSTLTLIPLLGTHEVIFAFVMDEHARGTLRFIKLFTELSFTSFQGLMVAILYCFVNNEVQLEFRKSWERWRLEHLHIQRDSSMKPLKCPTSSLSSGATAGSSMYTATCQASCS

GLP-1 receptor [2] = target: T1, GLP-1 receptor; experiment: PathHunter β-arrestin assay, GLP-1 receptor; set-up: host or cells: PathHunter CHO-K1 GLP1R β-Arrestin Cell Line; settings: β-arrestin-2 recruitment, PathHunter CHO-K1 GLP1R β-Arrestin Cell Line, 90 min at 37° C.; normalized to GLP-1; read-out: GLP-1R β Arrestin EC50
GIP receptor [3] = target: T2, GIP receptor (Homo sapiens, UniProt P48546); experiment: PathHunter β-arrestin assay, GIP receptor; set-up: host or cells: PathHunter CHO-K1 GIPR β-Arrestin Cell Line; settings: β-arrestin-2 recruitment, PathHunter CHO-K1 GIPR β-Arrestin Cell Line, 90 min at 37° C.; normalized to GIP; read-out: GIPR β Arrestin EC50
T2 sequence (P48546 22-466): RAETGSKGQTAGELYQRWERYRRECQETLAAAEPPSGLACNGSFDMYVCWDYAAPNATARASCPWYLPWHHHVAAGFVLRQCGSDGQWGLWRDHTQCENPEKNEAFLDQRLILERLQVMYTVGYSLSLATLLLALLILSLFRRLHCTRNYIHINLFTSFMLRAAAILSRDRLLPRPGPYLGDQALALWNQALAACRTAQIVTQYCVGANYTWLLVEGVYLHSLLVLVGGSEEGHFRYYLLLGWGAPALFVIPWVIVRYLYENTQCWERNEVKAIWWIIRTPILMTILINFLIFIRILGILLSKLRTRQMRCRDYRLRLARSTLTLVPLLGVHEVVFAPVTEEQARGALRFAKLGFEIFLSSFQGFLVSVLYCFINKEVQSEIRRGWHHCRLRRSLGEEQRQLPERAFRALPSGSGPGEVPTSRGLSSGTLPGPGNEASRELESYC

GIP receptor [4] = target: T2, GIP receptor; experiment: HitHunter cAMP assay, GIP receptor; settings: for pEC50: CHO cells stably expressing GIP receptor, cAMP accumulation, 30 min, read-out: EC50 GIP-1R; for Emax: CHO cells, cAMP, normalized to maximum signal from GIP (high) and DMSO (low), read-out: Emax GIP-1R

Row | Compound | pEC50 (GLP-1 receptor [1]) | Emax (GLP-1 receptor [1]) [%] | pEC50 (GLP-1 receptor [2]) | pEC50 (GIP receptor [3]) | pEC50 (GIP receptor [4]) | Emax (GIP receptor [4]) [%]
1 | CC[C@H](C)[C@H](NC(=O)[C@H](CC(C)C)NC(=O)[C@H](Cc1c[nH]c2ccccc12)NC(=O)[C@H](CCC(N)=O)NC(=O)[C@@H](NC(=O)[C@H](Cc1ccccc1)NC(=O)[C@H](C)NC(=O)[C@H](CCCCNC(=O)COCCOCCNC(=O)COCCOCCNC(=O)CC[C@H](NC(=O)CCCCCCCCCCCCCCCCCCC(=O)O)C(=O)O)NC(=O)[C@H](CCC(N)=O)NC(=O)[C@H](C)NC(=O)[C@@H](NC(=O)[C@H](CCCCN)NC(=O)[C@H](CC(=O)O)NC(=O)[C@H](CC(C)C)NC(=O)C(C)(C)NC(=O)[C@@H](NC(=O)[C@H](CO)NC(=O)[C@H](Cc1ccc(O)cc1)NC(=O)[C@H](CC(=O)O)NC(=O)[C@H](CO)NC(=O)[C@@H](NC(=O)[C@H](Cc1ccccc1)NC(=O)[C@@H](NC(=O)CNC(=O)[C@H](CCC(=O)O)NC(=O)CCCNC(=O)C(C)(C)c1cc(F)cc(C#N)c1)[C@@H](C)O)[C@@H](C)O)[C@@H](C)CC)[C@@H](C)CC)C(C)C)C(=O)N[C@@H](C)C(=O)NCC(=O)NCC(=O)N1CCC[C@H]1C(=O)N[C@@H](CO)C(=O)N[C@@H](CO)C(=O)NCC(=O)N[C@@H](C)C(=O)N1CCC[C@H]1C(=O)N1CCC[C@H]1C(=O)N1CCC[C@H]1C(=O)N[C@@H](CO)C(N)=O [Compound 200] ({Isobutyryl(2-(3-CN-5-F-Ph))-GABA}-EGTFTSDYSI[Aib]LDKIAQK([AEEA-AEEA-γGlu-C20 diacid])AFVQWLIAGGPSSGAPPPS-NH2) | 9.00 to 10.00 | 104 | < 6.00 | < 6.00 | 7.00 to 8.00 | 102
2 | CC[C@H](C)[C@H](NC(=O)[C@H](CC(C)C)NC(=O)[C@H](Cc1c[nH]c2ccccc12)NC(=O)[C@H](CCC(N)=O)NC(=O)[C@@H](NC(=O)[C@H](Cc1ccccc1)NC(=O)[C@H](C)NC(=O)[C@H](CCCCNC(=O)COCCOCCNC(=O)COCCOCCNC(=O)CC[C@H](NC(=O)CCCCCCCCCCCCCCCCCCC(=O)O)C(=O)O)NC(=O)[C@H](CCC(N)=O)NC(=O)[C@H](C)NC(=O)[C@@H](NC(=O)[C@H](CCCCN)NC(=O)[C@H](CC(=O)O)NC(=O)[C@H](CC(C)C)NC(=O)C(C)(C)NC(=O)[C@@H](NC(=O)[C@H](CO)NC(=O)[C@H](Cc1ccc(O)cc1)NC(=O)[C@H](CC(=O)O)NC(=O)[C@H](CO)NC(=O)[C@@H](NC(=O)[C@H](Cc1ccccc1)NC(=O)[C@@H](NC(=O)CNC(=O)[C@H](CCC(=O)O)NC(=O)CCNC(=O)C1(n2cccn2)CCNCC1)[C@@H](C)O)[C@@H](C)O)[C@@H](C)CC)[C@@H](C)CC)C(C)C)C(=O)N[C@@H](C)C(=O)NCC(=O)NCC(=O)N1CCC[C@H]1C(=O)N[C@@H](CO)C(=O)N[C@@H](CO)C(=O)NCC(=O)N[C@@H](C)C(=O)N1CCC[C@H]1C(=O)N1CCC[C@H]1C(=O)N1CCC[C@H]1C(=O)N[C@@H](CO)C(N)=O [Compound 160] ({X28-βAla}-EGTFTSDYSI[Aib]LDKIAQK([AEEA-AEEA-γGlu-C20 diacid])AFVQWLIAGGPSSGAPPPS-NH2) | 7.00 to 8.00 | 97 | < 6.00 | < 6.00 | 6.00 to 7.00 | 94
3 | CC[C@H](C)[C@H](NC(=O)[C@H](CO)NC(=O)[C@H](Cc1ccc(O)cc1)NC(=O)[C@H](CC(=O)O)NC(=O)[C@H](CO)NC(=O)[C@@H](NC(=O)[C@H](Cc1ccccc1)NC(=O)[C@@H](NC(=O)CNC(=O)[C@H](CCC(=O)O)NC(=O)CCNC(=O)C1(c2ccccc2)CCOCC1)[C@@H](C)O)[C@@H](C)O)C(=O)N[C@@H](Cc1ccc(O)cc1)C(=O)N[C@@H](CC(C)C)C(=O)N[C@@H](CC(=O)O)C(=O)N[C@@H](CCCCN)C(=O)N[C@@H](CCC(N)=O)C(=O)N[C@@H](C)C(=O)N[C@@H](C)C(=O)NC(C)(C)C(=O)N[C@@H](CCC(=O)O)C(=O)N[C@@H](Cc1ccccc1)C(=O)N[C@H](C(=O)N[C@@H](CC(N)=O)C(=O)N[C@@H](Cc1c[nH]c2ccccc12)C(=O)N[C@@H](CC(C)C)C(=O)N[C@@H](CC(C)C)C(=O)N[C@@H](C)C(=O)NCC(=O)NCC(=O)N1CCC[C@H]1C(=O)N[C@@H](CO)C(=O)N[C@@H](CO)C(=O)NCC(=O)N[C@@H](C)C(=O)N1CCC[C@H]1C(=O)N1CCC[C@H]1C(=O)N1CCC[C@H]1C(=O)N[C@@H](CO)C(=O)N[C@@H](CCCCNC(=O)COCCOCCNC(=O)COCCOCCNC(=O)CC[C@H](NC(=O)CCCCCCCCCCCCCCCCCCC(=O)O)C(=O)O)C(N)=O)C(C)C [Compound 154] | 8.00 to 9.00 | 99 | < 6.00 | < 6.00 | 7.00 to 8.00 | 106
4 | CC[C@H](C)[C@H](NC(=O)[C@H](CC(C)C)NC(=O)[C@H](Cc1c[nH]c2ccccc12)NC(=O)[C@H](CCC(N)=O)NC(=O)[C@@H](NC(=O)[C@H](Cc1ccccc1)NC(=O)[C@H](C)NC(=O)[C@H](CCCCNC(=O)COCCOCCNC(=O)COCCOCCNC(=O)CC[C@H](NC(=O)CCCCCCCCCCCCCCCCCCC(=O)O)C(=O)O)NC(=O)[C@H](CCC(N)=O)NC(=O)[C@H](C)NC(=O)[C@@H](NC(=O)[C@H](CCCCN)NC(=O)[C@H](CC(=O)O)NC(=O)[C@H](CC(C)C)NC(=O)C(C)(C)NC(=O)[C@@H](NC(=O)[C@H](CO)NC(=O)[C@H](Cc1ccc(O)cc1)NC(=O)[C@H](CC(=O)O)NC(=O)[C@H](CO)NC(=O)[C@@H](NC(=O)[C@H](Cc1ccccc1)NC(=O)[C@@H](NC(=O)CNC(=O)[C@H](CCC(=O)O)NC(=O)CCNC(=O)C(C)(C)c1ccc(F)c(F)c1)[C@@H](C)O)[C@@H](C)O)[C@@H](C)CC)[C@@H](C)CC)C(C)C)C(=O)N[C@@H](C)C(=O)NCC(=O)NCC(=O)N1CCC[C@H]1C(=O)N[C@@H](CO)C(=O)N[C@@H](CO)C(=O)NCC(=O)N[C@@H](C)C(=O)N1CCC[C@H]1C(=O)N1CCC[C@H]1C(=O)N1CCC[C@H]1C(=O)N[C@@H](CO)C(N)=O [Compound 215] ({X17-βAla}-EGTFTSDYSI[Aib]LDKIAQK([AEEA-AEEA-γGlu-C20 diacid])AFVQWLIAGGPSSGAPPPS-NH2) | 9.00 to 10.00 | 98 | < 6.00 | > 6.00 | 9.00 to 10.00 | 99
5 | CC[C@H](C)[C@H](NC(=O)[C@H](CC(C)C)NC(=O)[C@H](Cc1c[nH]c2ccccc12)NC(=O)[C@H](CCC(N)=O)NC(=O)[C@@H](NC(=O)[C@H](Cc1ccccc1)NC(=O)[C@H](C)NC(=O)[C@H](CCCCNC(=O)COCCOCCNC(=O)COCCOCCNC(=O)CC[C@H](NC(=O)CCCCCCCCCCCCCCCCCCC(=O)O)C(=O)O)NC(=O)[C@H](CCC(N)=O)NC(=O)[C@H](C)NC(=O)[C@@H](NC(=O)[C@H](CCCCN)NC(=O)[C@H](CC(=O)O)NC(=O)[C@H](CC(C)C)NC(=O)C(C)(C)NC(=O)[C@@H](NC(=O)[C@H](CO)NC(=O)[C@H](Cc1ccc(O)cc1)NC(=O)[C@H](CC(=O)O)NC(=O)[C@H](CO)NC(=O)[C@@H](NC(=O)[C@H](Cc1ccccc1)NC(=O)[C@@H](NC(=O)CNC(=O)[C@H](CCC(=O)O)NC(=O)CCCNC(=O)CNC(=O)Nc1ccc(F)cc1F)[C@@H](C)O)[C@@H](C)O)[C@@H](C)CC)[C@@H](C)CC)C(C)C)C(=O)N[C@@H](C)C(=O)NCC(=O)NCC(=O)N1CCC[C@H]1C(=O)N[C@@H](CO)C(=O)N[C@@H](CO)C(=O)NCC(=O)N[C@@H](C)C(=O)N1CCC[C@H]1C(=O)N1CCC[C@H]1C(=O)N1CCC[C@H]1C(=O)N[C@@H](CO)C(N)=O [Compound 267] ({X29-CO}-G[GABA]EGTFTSDYSI[Aib]LDKIAQK([AEEA-AEEA-γGlu-C20 diacid])AFVQWLIAGGPSSGAPPPS-NH2) | 8.00 to 9.00 | 105 | < 6.00 | < 6.00 | 8.00 to 9.00 | 106
